Experimental data from US20240173440A1, “HIGH PURITY COPPER RADIOPHARMACEUTICAL COMPOSITIONS AND DIAGNOSTIC AND THERAPEUTIC USES THEREOF” (Nuclidium AG, priority 2022, published 2024).

How the values were obtained:
hFAP = hFAP (Homo sapiens (Human), UniProt Q12884); experiment: Saturation binding on isolated HEK-293.hFAP cell membranes; parameters: Bmax: unit not given here; conditions: 37° C.
Experimental: The cells were homogenized using Ultra-Turrax, and the homogenized suspension was centrifuged at 500×g for 10 min at 4° C. The supernatant was collected in centrifuge tubes (Beckman Coulter Inc., Brea, CA, USA). This procedure was then repeated 5 times. The collected supernatant was centrifuged in an ultra-centrifuge (Beckman) at 4° C. for 55 min at 49,000×g. Then, the pellet was re-suspended in 10 mM ice-cold HEPES buffer (pH 7.5), aliquoted, and stored at −80° C. The protein concentration of those membrane suspensions was determined by the Bradford method, BSA as the standard.
Each assay tube contained 170 μL of binding buffer (20 mM HEPES, pH 7.4, containing 4 mM μgCl2, 0.2% BSA, 20 μg/L bacitracin, 20 μg/L PMSF and 200,000 KIU/L aprotinin). The incubation was initiated by adding 30 μL of radioligand solution at 10 times the final concentration and 100 μL of cell membrane suspension to yield 10 μg of protein per well. For the determination of the non-specific binding, 140 μL of the above binding buffer was added along with 30 μL of FAPI-46 to obtain (0.1 mM). Bound fractions were plotted versus the corresponding radioligand concentration at equilibrium. The dissociation constant (KD) and maximal binding capacity (Bmax) values were calculated using GraphPad Software Inc., Prism 7, San Diego, CA, USA (Table 33 and FIG. 21).

[1] = system: HT-1080.hFAP and HT-1080.wt xenografts; experiment: Quantitative biodistribution in HT-1080.hFAP and HT-1080.wt xenografted mice; type: in vivo; conditions: for Biodistribution HT-1080.wt: FAP-negative tumor; for Biodistribution HT-1080.hFAP: FAP-positive tumor
Experimental: The tumors were allowed to grow to an average volume of 100-200 mm3.
Biodistribution Studies: The xenografted mice were randomized (n=5 per group) and injected intravenously via the tail vein with the ^61Cu-labeled radioligands (100 μL, […], 0.8-1MBq). Mice were euthanized 1h and 4h pi. by CO2 asphyxiation. Organs of interest and blood were collected, rinsed of excess blood, blotted dry, weighed, and counted in a […]. The samples were counted against a suitably diluted aliquot of the injected solution as the standard and the results are expressed as the percentage of the injected activity per gram of tissue (0% I.A./g)+SD.

[2] = Lipophilicity, log D by shake-flask method (1-octanol/PBS pH 7.4); type: physicochemical; conditions: shake-flask, Table 17, mean ± SD
Experimental: The radiotracer (1 μM) was added to a 50:50 pre-saturated mixture of 1-octanol and phosphate buffered saline (PBSpH 7.4). The solution was vortexed for 30 min and then centrifuged at 3,000 rpm to achieve a phase separation. Aliquots from each phase were collected and measured in a gamma-counter. The distribution coefficient was calculated as the average of the logarithmic values of the ratio between the radioactivity in the organic and the PBS phase.
Table 17. Lipophilicity expressed as the log distribution coefficient D (log D(Octanol/PBS pH7.4)) of ^61Cu-radiotracers versus ^68Ga-radiotracers (reference radiotracers).
In a pre-lubricated Eppendorf tube, a pre-saturated mixture of 500 μL of 1-octanol and 500 μL of PBS pH 7.4 (phosphate-buffered saline) were added. An aliquot of […] in 10 μL of the radioligand was added to this mixture, shaken for 30 min, and then centrifuged at 3000 rcf for 10 min to achieve phase separation. Aliquots of 100 μL were removed from the 1-octanol and from the PBS phases, and the activity was measured in a […]. The partition coefficient was calculated as the average log ratio value of the radioactivity in the organic fraction and PBS fraction.

LNCaP xenografts = experiment: Quantitative biodistribution in LNCaP xenografted mice; type: in vivo; conditions: LNCap xenograft mice, 1 h after injection
Experimental: The mice were randomly distributed in groups and euthanized at 1 and at 4 hours post-injection. The organs of interest were collected, rinsed, blotted, weighed and counted in a gamma counter. The results are expressed as percentage of injected activity per gram (% IA/g), representing the mean±standard deviation of n=4-8 mice per group and they were obtained by extrapolation from counts of an aliquot taken from the injected solution as standard.
The biodistribution of the [^61Cu]Cu-NODAGA radiotracers was compared with the reference compounds used in patients under identical experimental conditions. The mice were randomly distributed in groups, injected with the radiotracer under investigation and euthanized at 1 and at 4 hours post-injection of the radiotracers under investigation. The organs of interest were collected, rinsed, blotted, weighed and counted in a gamma counter. The results are expressed as percentage of injected activity per gram (% IA/g), representing the mean±standard deviation of all mice per group and they were obtained by extrapolation from counts of an aliquot taken from the injected solution as standard.

[3] = 1 h p.i., HT-1080.hFAP and HT-1080.wt xenografts
[4] = 4 h p.i., HT-1080.hFAP and HT-1080.wt xenografts

hFAP, sequence (Q12884 whole entry): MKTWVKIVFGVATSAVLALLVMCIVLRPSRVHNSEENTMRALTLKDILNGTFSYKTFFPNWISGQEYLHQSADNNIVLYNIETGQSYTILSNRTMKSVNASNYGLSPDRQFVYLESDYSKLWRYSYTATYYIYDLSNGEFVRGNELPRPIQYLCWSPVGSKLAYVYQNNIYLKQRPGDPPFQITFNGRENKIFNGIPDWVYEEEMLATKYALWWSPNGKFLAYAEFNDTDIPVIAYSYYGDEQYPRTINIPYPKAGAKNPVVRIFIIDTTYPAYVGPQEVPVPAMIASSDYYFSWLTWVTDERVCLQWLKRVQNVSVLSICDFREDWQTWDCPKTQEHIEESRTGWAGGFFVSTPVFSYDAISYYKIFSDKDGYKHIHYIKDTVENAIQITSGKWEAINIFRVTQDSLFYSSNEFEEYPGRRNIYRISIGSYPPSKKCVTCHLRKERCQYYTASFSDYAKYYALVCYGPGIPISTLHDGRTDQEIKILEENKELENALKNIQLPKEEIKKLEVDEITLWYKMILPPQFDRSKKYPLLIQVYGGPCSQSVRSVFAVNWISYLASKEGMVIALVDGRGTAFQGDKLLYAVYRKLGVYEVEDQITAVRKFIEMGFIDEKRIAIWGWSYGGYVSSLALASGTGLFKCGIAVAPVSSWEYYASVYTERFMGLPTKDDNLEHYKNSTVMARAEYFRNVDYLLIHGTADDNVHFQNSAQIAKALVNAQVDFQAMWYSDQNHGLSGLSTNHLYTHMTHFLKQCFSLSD

CN(C(=O)CCC(=O)NCCNC(=O)CC[C@H](C(=O)O)N1CCN2CCN(CC1)CC(=O)[O][61Cu][O]C(=O)C2)c1ccc2nccc(C(=O)NCC(=O)N3CC(F)(F)C[C@H]3C#N)c2c1 [[^61Cu]Cu-NODAGA-F2]
Bmax (hFAP): 7.7-8.4 | Biodistribution Heart ([1]; 1 hour p.i.): 0.6 ± 0.1 % I.A./g | Biodistribution Intestine ([1]; 1 hour p.i.): 0.5 ± 0.1 % I.A./g | Biodistribution Liver ([1]; 1 hour p.i.): 0.6 ± 0.1 % I.A./g | Biodistribution Lung ([1]; 1 hour p.i.): 0.8 ± 0.1 % I.A./g | Biodistribution Muscle ([1]; 1 hour p.i.): 0.9 ± 0.1 % I.A./g | Biodistribution Spleen ([1]; 1 hour p.i.): 0.4 ± 0.1 % I.A./g | Biodistribution Stomach ([1]; 1 hour p.i.): 0.6 ± 0.1 % I.A./g | Biodistribution Adrenal [1, 3]: 1.5 ± 0.3 % IA/g | Biodistribution Blood [1, 3]: 1.2 ± 0.1 % IA/g | Biodistribution Femur [1, 3]: 2.4 ± 0.3 % IA/g | Biodistribution HT1080.hFAP (FAP-positive tumor) [1, 3]: 3.5 ± 1.0 % IA/g | Biodistribution HT1080.wt (FAP-negative tumor) [1, 3]: 1.4 ± 0.2 % IA/g | Biodistribution Heart [1, 3]: 0.6 ± 0.1 % IA/g | Biodistribution Intestine [1, 3]: 0.5 ± 0.1 % IA/g | Biodistribution Kidney [1, 3]: 1.1 ± 0.1 % IA/g | Biodistribution Liver [1, 3]: 0.6 ± 0.1 % IA/g | Biodistribution Lung [1, 3]: 0.8 ± 0.1 % IA/g | Biodistribution Muscle [1, 3]: 0.9 ± 0.1 % IA/g | Biodistribution Pancreas [1, 3]: 1.1 ± 0.2 % IA/g | Biodistribution Spleen [1, 3]: 0.4 ± 0.1 % IA/g | Biodistribution Stomach [1, 3]: 0.6 ± 0.1 % IA/g | Biodistribution Adrenal ([1]; 4 hours p.i.): 0.3 ± 0.1 % I.A./g | Biodistribution Blood ([1]; 4 hours p.i.): 0.5 ± 0.1 % I.A./g | Biodistribution Heart ([1]; 4 hours p.i.): 0.3 ± 0.0 % I.A./g | Biodistribution Intestine ([1]; 4 hours p.i.): 0.3 ± 0.1 % I.A./g | Biodistribution Kidneys ([1]; 4 hours p.i.): 1.0 ± 0.1 % I.A./g | Biodistribution Liver ([1]; 4 hours p.i.): 0.6 ± 0.1 % I.A./g | Biodistribution Lung ([1]; 4 hours p.i.): 0.4 ± 0.0 % I.A./g | Biodistribution Muscle ([1]; 4 hours p.i.): 0.4 ± 0.1 % I.A./g | Biodistribution Pancreas ([1]; 4 hours p.i.): 0.5 ± 0.0 % I.A./g | Biodistribution Spleen ([1]; 4 hours p.i.): 0.2 ± 0.0 % I.A./g | Biodistribution Stomach ([1]; 4 hours p.i.): 0.3 ± 0.1 % I.A./g | Biodistribution Adrenal [1, 4]: 0.3 ± 0.1 % IA/g | Biodistribution Blood [1, 4]: 0.5 ± 0.1 % IA/g | Biodistribution Femur [1, 4]: 1.6 ± 0.3 % IA/g | Biodistribution HT1080.hFAP (FAP-positive tumor) [1, 4]: 4.0 ± 0.6 % IA/g | Biodistribution HT1080.wt (FAP-negative tumor) [1, 4]: 0.9 ± 0.1 % IA/g | Biodistribution Heart [1, 4]: 0.3 ± 0.0 % IA/g | Biodistribution Intestine [1, 4]: 0.3 ± 0.1 % IA/g | Biodistribution Kidney [1, 4]: 1.0 ± 0.1 % IA/g | Biodistribution Liver [1, 4]: 0.6 ± 0.1 % IA/g | Biodistribution Lung [1, 4]: 0.4 ± 0.0 % IA/g | Biodistribution Muscle [1, 4]: 0.4 ± 0.1 % IA/g | Biodistribution Pancreas [1, 4]: 0.5 ± 0.0 % IA/g | Biodistribution Spleen [1, 4]: 0.2 ± 0.0 % IA/g | Biodistribution Stomach [1, 4]: 0.3 ± 0.1 % IA/g | Biodistribution HT-1080.wt ([1]; 1 hour p.i.): 1.4 ± 0.2 % I.A./g | Biodistribution HT-1080.wt ([1]; 4 hours p.i.): 0.9 ± 0.1 % I.A./g | Biodistribution HT-1080.hFAP ([1]; 1 hour p.i.): 3.5 ± 1.0 % I.A./g | Biodistribution HT-1080.hFAP ([1]; 4 hours p.i.): 4.0 ± 0.6 % I.A./g | accumulation in tumor and target-positive tissues ([1]; HT-1080.hFAP and HT-1080.wt xenografts): high accumulation in FAP-positive (HT-1080.hFAP) tumor and murine-FAP-positive tissues

CN(C(=O)CCC(=O)N1CCN(C(=O)CC[C@H](C(=O)O)N2CCN3CCN(CC2)CC(=O)[O][Cu][O]C(=O)C3)CC1)c1ccc2nccc(C(=O)NCC(=O)N3CC(F)(F)C[C@H]3C#N)c2c1 [[^61Cu]Cu-NODAGA-F4]
Kd (hFAP): 3 to 3.9 nM

O=C([O-])CN(CCN(CC(=O)[O-])Cc1cc(CCC(=O)NCCCCCC(=O)NCCCC[C@H](NC(=O)N[C@@H](CCC(=O)O)C(=O)O)C(=O)O)ccc1[O-])Cc1cc(CCC(=O)O)ccc1[O-].[68Ga+3].[OH3+] [[^68Ga]Ga-PSMA-11]
log D(O/PBS pH 7.4) [2]: −3.89 ± 0.19 | Biodistribution Adrenal (LNCaP xenografts): 19.2 ± 5.35 % IA/g | Biodistribution Blood (LNCaP xenografts): 0.25 ± 0.07 % IA/g | Biodistribution Bone (LNCaP xenografts): 3.69 ± 1.86 % IA/g | Biodistribution Heart (LNCaP xenografts): 0.32 ± 0.10 % IA/g | Biodistribution Intestine (LNCaP xenografts): 1.52 ± 0.60 % IA/g | Biodistribution Kidney (LNCaP xenografts): 159 ± 31 % IA/g | Biodistribution LNCaP-tumor (LNCaP xenografts): 10.2 ± 1.53 % IA/g | Biodistribution Liver (LNCaP xenografts): 0.54 ± 0.27 % IA/g | Biodistribution Lung (LNCaP xenografts): 1.43 ± 0.43 % IA/g | Biodistribution Muscle (LNCaP xenografts): 0.90 ± 0.36 % IA/g | Biodistribution Pancreas (LNCaP xenografts): 0.70 ± 0.12 % IA/g | Biodistribution Salivary gland (LNCaP xenografts): 1.56 ± 0.31 % IA/g | Biodistribution Spleen (LNCaP xenografts): 6.38 ± 1.37 % IA/g | Biodistribution Stomach (LNCaP xenografts): 0.69 ± 0.11 % IA/g | Ratio Tumor/Blood (LNCaP xenografts): 45.3 ± 19.7 | Ratio Tumor/Kidney (LNCaP xenografts): 0.07 ± 0.02 | Ratio Tumor/Liver (LNCaP xenografts): 23.5 ± 12.5 | Ratio Tumor/Muscles (LNCaP xenografts): 13.6 ± 8.3
